Publication PMC9532703, “A novel small molecule RK-019 inhibits FGFR2-amplification gastric cancer cell proliferation and induces apoptosis in vitro and in vivo” (Frontiers in Pharmacology, 2022)

Columns and labels:
Assay in all cases: Kinase selectivity panel
Type in all cases: biochemical
Settings in all cases: read-out: Inhibition(%) @ 1 µM RK-019
PDK1(h) = molecular target: T1, PDK1(h) (Homo sapiens, UniProt O15530)
T1 construct: purchased Eurofins Discovery Services (KinaseProfiler)
Summary of the method: (§1)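 Recombinant human kinase incubated with 1 µM compound; ATP-site competition binding quantified in vitro as inhibition ratio.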

TNIK(h) = molecular target: T2, TNIK(h) (Homo sapiens, UniProt Q9UKE5)
T2 construct: purchased Eurofins Discovery Services (KinaseProfiler)
Summary of the method: as §1

CDK17/cyclinY(h) = molecular target: T3, CDK17/cyclinY(h) (Homo sapiens, UniProt Q00537)
T3 construct: purchased Eurofins Discovery Services (KinaseProfiler)
Summary of the method: as §1

Abl(m) = molecular target: T4, Abl(m) (Mus musculus, UniProt P00520)
T4 construct: purchased Eurofins Discovery Services (KinaseProfiler)

B-Raf(V599E)(h) = molecular target: T5, B-Raf(V599E)(h) (Homo sapiens, UniProt P15056, V600E)
T5 construct: purchased Eurofins Discovery Services (KinaseProfiler)
Summary of the method: as §1

TYK2(h) = molecular target: T6, TYK2(h) (Homo sapiens, UniProt P29597)
T6 construct: purchased Eurofins Discovery Services (KinaseProfiler)
Summary of the method: as §1

EGFR(T790M)(h) = molecular target: T7, EGFR(T790M)(h) (Homo sapiens, UniProt P00533, T790M)
T7 construct: purchased Eurofins Discovery Services (KinaseProfiler)
Summary of the method: as §1

BTK(h) = molecular target: T8, BTK(h) (Homo sapiens, UniProt Q06187)
T8 construct: purchased Eurofins Discovery Services (KinaseProfiler)
Summary of the method: as §1

Fer(h) = molecular target: T9, Fer(h) (Homo sapiens, UniProt P16591)
T9 construct: purchased Eurofins Discovery Services (KinaseProfiler)
Summary of the method: as §1

Blk(m) = molecular target: T10, Blk(m) (Mus musculus, UniProt P16277)
T10 construct: purchased Eurofins Discovery Services (KinaseProfiler)

CRIK(h) = molecular target: T11, CRIK(h) (Homo sapiens, UniProt O14578)
T11 construct: purchased Eurofins Discovery Services (KinaseProfiler)
Summary of the method: as §1

Hck(h) activated = molecular target: T12, Hck(h) activated (Homo sapiens, UniProt P08631)
T12 construct: purchased Eurofins Discovery Services (KinaseProfiler)
Summary of the method: as §1

CLK3(h) = molecular target: T13, CLK3(h) (Homo sapiens, UniProt P49761)
T13 construct: purchased Eurofins Discovery Services (KinaseProfiler)
Summary of the method: as §1

TLK2(h) = molecular target: T14, TLK2(h) (Homo sapiens, UniProt Q86UE8)
T14 construct: purchased Eurofins Discovery Services (KinaseProfiler)
Summary of the method: as §1

NEK4(h) = molecular target: T15, NEK4(h) (Homo sapiens, UniProt P51957)
T15 construct: purchased Eurofins Discovery Services (KinaseProfiler)
Summary of the method: as §1

STK32A(h) = molecular target: T16, STK32A(h) (Homo sapiens, UniProt Q8WU08)
T16 construct: purchased Eurofins Discovery Services (KinaseProfiler)
Summary of the method: as §1

MSK2(h) = molecular target: T17, MSK2(h) (Homo sapiens, UniProt O75676)
T17 construct: purchased Eurofins Discovery Services (KinaseProfiler)
Summary of the method: as §1

AMPKα1(h) = molecular target: T18, AMPKα1(h) (Homo sapiens, UniProt Q13131)
T18 construct: purchased Eurofins Discovery Services (KinaseProfiler)
Summary of the method: as §1

Met(h) = molecular target: T19, Met(h) (Homo sapiens, UniProt P08581)
T19 construct: purchased Eurofins Discovery Services (KinaseProfiler)
Summary of the method: as §1

Aurora-A(h) = molecular target: T20, Aurora-A(h) (Homo sapiens, UniProt O14965)
T20 construct: purchased Eurofins Discovery Services (KinaseProfiler)
Summary of the method: as §1

PKCζ(h) = molecular target: T21, PKCζ(h) (Homo sapiens, UniProt Q05513)
T21 construct: purchased Eurofins Discovery Services (KinaseProfiler)
Summary of the method: as §1

FGFR2(N549H)(h) = molecular target: T22, FGFR2(N549H)(h) (Homo sapiens, UniProt P21802, N549H)
T22 construct: purchased Eurofins Discovery Services (KinaseProfiler)
Summary of the method: as §1

NLK(h) = molecular target: T23, NLK(h) (Homo sapiens, UniProt Q9UBE8)
T23 construct: purchased Eurofins Discovery Services (KinaseProfiler)
Summary of the method: as §1

PAK3(h) = molecular target: T24, PAK3(h) (Homo sapiens, UniProt O75914)
T24 construct: purchased Eurofins Discovery Services (KinaseProfiler)
Summary of the method: as §1

DAPK1(h) = molecular target: T25, DAPK1(h) (Homo sapiens, UniProt P53355)
T25 construct: purchased Eurofins Discovery Services (KinaseProfiler)
Summary of the method: as §1

KDR(h) = molecular target: T26, KDR(h) (Homo sapiens, UniProt P35968)
T26 construct: purchased Eurofins Discovery Services (KinaseProfiler)
Summary of the method: as §1

Mer(h) = molecular target: T27, Mer(h) (Homo sapiens, UniProt Q12866)
T27 construct: purchased Eurofins Discovery Services (KinaseProfiler)
Summary of the method: as §1

ICK(h) = molecular target: T28, ICK(h) (Homo sapiens, UniProt Q9UPZ9)
T28 construct: purchased Eurofins Discovery Services (KinaseProfiler)
Summary of the method: as §1

CK2α1(h) = molecular target: T29, CK2α1(h) (Homo sapiens, UniProt P68400)
T29 construct: purchased Eurofins Discovery Services (KinaseProfiler)
Summary of the method: as §1

BMPR2(h) = molecular target: T30, BMPR2(h) (Homo sapiens, UniProt Q13873)
T30 construct: purchased Eurofins Discovery Services (KinaseProfiler)
Summary of the method: as §1

Rsk2(h) = molecular target: T31, Rsk2(h) (Homo sapiens, UniProt P51812)
T31 construct: purchased Eurofins Discovery Services (KinaseProfiler)
Summary of the method: as §1

HRI(h) = molecular target: T32, HRI(h) (Homo sapiens, UniProt Q9BQI3)
T32 construct: purchased Eurofins Discovery Services (KinaseProfiler)
Summary of the method: as §1

HPK1(h) = molecular target: T33, HPK1(h) (Homo sapiens, UniProt Q92918)
T33 construct: purchased Eurofins Discovery Services (KinaseProfiler)
Summary of the method: as §1

GCK(h) = molecular target: T34, GCK(h) (Homo sapiens, UniProt Q12851)
T34 construct: purchased Eurofins Discovery Services (KinaseProfiler)
Summary of the method: as §1

Ros(h) = molecular target: T35, Ros(h) (Homo sapiens, UniProt P08922)
T35 construct: purchased Eurofins Discovery Services (KinaseProfiler)
Summary of the method: as §1

MARK1(h) = molecular target: T36, MARK1(h) (Homo sapiens, UniProt Q9P0L2)
T36 construct: purchased Eurofins Discovery Services (KinaseProfiler)
Summary of the method: as §1

Bmx(h) = molecular target: T37, Bmx(h) (Homo sapiens, UniProt P51813)
T37 construct: purchased Eurofins Discovery Services (KinaseProfiler)
Summary of the method: as §1

TSSK1(h) = molecular target: T38, TSSK1(h) (Homo sapiens, UniProt Q9BXA7)
T38 construct: purchased Eurofins Discovery Services (KinaseProfiler)
Summary of the method: as §1

T5 sequence (P15056 416-766 V600E limits assumed): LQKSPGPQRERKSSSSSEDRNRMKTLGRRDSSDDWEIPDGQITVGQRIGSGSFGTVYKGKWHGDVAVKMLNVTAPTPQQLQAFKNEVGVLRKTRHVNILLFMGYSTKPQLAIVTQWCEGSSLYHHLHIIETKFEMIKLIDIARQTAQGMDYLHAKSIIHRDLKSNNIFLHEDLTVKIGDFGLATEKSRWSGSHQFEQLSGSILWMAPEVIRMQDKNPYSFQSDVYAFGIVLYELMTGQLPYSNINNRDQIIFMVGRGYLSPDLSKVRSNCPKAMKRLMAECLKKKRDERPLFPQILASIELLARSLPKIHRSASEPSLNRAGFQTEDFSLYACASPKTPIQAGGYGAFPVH
T18 sequence (Q13131 whole entry): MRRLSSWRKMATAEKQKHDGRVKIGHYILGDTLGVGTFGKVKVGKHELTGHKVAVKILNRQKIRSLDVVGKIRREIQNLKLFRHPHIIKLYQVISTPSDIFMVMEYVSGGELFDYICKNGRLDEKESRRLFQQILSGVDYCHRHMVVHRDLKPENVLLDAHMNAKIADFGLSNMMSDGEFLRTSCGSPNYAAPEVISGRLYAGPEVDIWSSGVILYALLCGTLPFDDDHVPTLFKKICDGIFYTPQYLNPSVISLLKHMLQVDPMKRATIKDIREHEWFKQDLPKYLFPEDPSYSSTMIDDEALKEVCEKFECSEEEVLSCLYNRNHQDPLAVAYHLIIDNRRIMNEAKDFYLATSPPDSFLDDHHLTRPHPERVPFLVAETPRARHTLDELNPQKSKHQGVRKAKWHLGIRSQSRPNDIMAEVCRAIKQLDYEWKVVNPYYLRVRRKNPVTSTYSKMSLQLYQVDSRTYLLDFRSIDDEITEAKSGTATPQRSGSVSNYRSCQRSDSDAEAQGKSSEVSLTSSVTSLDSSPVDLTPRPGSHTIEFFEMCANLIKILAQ
T18 sequence (Q9Y478 whole entry partner): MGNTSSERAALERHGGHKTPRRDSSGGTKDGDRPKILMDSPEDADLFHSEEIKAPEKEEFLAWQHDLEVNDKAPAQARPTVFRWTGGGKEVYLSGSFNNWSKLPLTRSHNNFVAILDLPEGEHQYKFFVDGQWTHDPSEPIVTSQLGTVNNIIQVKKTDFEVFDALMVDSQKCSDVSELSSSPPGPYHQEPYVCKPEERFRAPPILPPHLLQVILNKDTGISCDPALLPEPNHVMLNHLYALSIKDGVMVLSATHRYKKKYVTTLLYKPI
T18 sequence (P54619 whole entry partner): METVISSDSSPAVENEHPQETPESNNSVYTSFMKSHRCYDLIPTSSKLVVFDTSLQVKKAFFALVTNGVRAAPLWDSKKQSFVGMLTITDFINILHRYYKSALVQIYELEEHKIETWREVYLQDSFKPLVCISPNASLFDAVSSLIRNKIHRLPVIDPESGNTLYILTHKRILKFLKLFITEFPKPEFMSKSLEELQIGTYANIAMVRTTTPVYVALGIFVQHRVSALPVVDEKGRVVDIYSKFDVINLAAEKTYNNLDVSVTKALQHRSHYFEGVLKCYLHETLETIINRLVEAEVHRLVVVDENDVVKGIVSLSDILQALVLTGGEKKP
T27 sequence (Q12866 21-999): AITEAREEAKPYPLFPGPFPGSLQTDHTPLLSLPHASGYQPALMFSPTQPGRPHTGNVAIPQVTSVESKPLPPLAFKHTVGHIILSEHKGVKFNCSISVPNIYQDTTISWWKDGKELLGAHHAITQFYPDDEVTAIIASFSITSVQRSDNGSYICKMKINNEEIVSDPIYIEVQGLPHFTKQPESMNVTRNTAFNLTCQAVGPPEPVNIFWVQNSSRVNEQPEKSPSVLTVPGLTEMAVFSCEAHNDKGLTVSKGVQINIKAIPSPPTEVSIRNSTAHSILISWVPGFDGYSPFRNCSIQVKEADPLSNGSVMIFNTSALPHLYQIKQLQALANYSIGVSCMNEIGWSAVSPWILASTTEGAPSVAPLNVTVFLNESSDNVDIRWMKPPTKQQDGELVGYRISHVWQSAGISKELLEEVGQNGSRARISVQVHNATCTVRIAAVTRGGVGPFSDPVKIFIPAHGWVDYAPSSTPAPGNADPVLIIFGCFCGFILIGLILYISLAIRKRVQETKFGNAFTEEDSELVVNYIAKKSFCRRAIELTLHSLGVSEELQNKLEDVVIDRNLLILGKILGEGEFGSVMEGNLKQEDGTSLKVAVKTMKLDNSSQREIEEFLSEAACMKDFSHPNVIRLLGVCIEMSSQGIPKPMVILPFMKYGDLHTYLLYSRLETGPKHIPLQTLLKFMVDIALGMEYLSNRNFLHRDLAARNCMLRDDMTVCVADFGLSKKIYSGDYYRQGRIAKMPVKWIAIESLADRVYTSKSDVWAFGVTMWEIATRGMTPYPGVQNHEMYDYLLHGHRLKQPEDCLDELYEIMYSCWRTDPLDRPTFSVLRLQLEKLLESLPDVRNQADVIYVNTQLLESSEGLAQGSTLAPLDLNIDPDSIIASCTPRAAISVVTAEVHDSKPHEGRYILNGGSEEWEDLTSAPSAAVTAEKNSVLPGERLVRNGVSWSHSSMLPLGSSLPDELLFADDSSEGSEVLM
T22 sequence (P21802 22-821 N549H): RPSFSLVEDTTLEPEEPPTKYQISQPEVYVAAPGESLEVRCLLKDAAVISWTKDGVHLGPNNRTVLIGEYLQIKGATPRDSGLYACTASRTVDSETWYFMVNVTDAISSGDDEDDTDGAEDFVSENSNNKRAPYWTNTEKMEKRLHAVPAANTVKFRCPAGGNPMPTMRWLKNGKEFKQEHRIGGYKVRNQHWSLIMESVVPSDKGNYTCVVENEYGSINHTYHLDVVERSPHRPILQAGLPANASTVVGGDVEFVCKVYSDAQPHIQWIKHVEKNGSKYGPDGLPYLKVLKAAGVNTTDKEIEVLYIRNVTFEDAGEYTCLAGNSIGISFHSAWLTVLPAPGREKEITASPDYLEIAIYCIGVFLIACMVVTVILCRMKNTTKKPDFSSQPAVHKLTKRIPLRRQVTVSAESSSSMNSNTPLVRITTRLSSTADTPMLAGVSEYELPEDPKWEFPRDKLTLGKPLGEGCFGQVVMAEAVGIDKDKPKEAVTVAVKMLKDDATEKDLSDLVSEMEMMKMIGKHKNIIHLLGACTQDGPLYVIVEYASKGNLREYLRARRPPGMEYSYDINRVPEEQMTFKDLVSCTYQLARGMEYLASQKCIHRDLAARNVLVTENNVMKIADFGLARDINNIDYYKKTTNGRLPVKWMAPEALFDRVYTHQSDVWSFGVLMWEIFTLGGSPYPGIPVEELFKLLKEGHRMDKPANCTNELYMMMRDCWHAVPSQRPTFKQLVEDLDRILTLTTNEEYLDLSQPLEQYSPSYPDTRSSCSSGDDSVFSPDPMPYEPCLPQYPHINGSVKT
T31 sequence (P51812 whole entry): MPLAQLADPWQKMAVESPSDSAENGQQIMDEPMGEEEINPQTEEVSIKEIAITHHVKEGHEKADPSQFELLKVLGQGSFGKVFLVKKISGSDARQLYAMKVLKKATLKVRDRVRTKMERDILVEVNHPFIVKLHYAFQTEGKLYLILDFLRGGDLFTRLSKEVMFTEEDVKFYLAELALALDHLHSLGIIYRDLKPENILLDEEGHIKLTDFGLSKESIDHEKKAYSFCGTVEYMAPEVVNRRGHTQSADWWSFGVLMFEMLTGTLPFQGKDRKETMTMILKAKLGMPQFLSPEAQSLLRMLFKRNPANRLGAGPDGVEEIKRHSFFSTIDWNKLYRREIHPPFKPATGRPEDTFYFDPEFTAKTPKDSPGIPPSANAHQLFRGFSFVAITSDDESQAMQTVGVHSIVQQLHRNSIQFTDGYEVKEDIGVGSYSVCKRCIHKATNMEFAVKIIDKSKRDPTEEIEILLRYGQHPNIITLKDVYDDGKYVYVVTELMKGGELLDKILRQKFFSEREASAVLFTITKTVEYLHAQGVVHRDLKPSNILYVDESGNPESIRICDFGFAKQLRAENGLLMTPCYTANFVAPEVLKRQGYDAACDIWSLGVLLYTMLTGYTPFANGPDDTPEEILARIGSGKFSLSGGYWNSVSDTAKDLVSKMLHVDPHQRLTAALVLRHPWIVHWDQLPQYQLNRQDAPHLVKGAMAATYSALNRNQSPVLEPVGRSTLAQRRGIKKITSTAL
T15 sequence (P51957 whole entry): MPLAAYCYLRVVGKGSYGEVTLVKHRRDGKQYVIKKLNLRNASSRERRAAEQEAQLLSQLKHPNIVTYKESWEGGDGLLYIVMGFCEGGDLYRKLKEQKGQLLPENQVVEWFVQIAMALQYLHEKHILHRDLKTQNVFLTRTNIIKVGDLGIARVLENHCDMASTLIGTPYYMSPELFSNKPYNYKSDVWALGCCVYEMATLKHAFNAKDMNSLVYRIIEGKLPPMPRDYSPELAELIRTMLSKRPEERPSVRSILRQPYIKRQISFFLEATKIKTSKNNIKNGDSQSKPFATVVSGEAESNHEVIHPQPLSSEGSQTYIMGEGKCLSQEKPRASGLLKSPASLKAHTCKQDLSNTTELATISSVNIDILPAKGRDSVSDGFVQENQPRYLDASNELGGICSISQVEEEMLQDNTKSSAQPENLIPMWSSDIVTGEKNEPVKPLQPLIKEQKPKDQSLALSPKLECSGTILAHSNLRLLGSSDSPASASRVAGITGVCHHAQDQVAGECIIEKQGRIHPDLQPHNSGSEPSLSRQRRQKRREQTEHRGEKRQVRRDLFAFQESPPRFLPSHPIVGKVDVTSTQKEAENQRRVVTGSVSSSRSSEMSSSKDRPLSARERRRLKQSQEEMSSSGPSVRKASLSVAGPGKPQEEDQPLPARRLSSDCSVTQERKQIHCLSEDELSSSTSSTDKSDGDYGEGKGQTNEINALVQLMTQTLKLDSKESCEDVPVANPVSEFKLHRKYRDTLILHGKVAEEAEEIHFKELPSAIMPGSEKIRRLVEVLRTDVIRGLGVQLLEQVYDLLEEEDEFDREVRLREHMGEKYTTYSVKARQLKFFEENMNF

For COc1cc(OC)cc(N(CCN[C@H](C)CO)c2ccc3ncc(-c4cnn(C)c4)c(=O)n3c2)c1 [RK-019, (R)-7-((3,5-dimethoxyphenyl) (2-((1-hydroxypropan-2-yl)amino)ethyl)amino)-3-(1-methyl-1H-pyrazol-4-yl)-4H-pyrido [1,2-a]pyrimidin-4-one], the activity at 1 µM (PDK1(h)) was 110%, the activity at 1 µM (TNIK(h)) was 42% and the activity at 1 µM (CDK17/cyclinY(h)) was 104%. For the same compound, the activity at 1 µM (Abl(m)) was 17%, the activity at 1 µM (B-Raf(V599E)(h)) was 70% and the activity at 1 µM (TYK2(h)) was 96%. The activity at 1 µM (EGFR(T790M)(h)) was 90%, the activity at 1 µM (BTK(h)) was 72% and the activity at 1 µM (Fer(h)) was 127%. It also gave an activity at 1 µM (Blk(m)) of 53%, an activity at 1 µM (CRIK(h)) of 117% and an activity at 1 µM (Hck(h) activated) of 60%. It also gave an activity at 1 µM (CLK3(h)) of 102%, an activity at 1 µM (TLK2(h)) of 124% and an activity at 1 µM (NEK4(h)) of 109%. It also gave an activity at 1 µM (STK32A(h)) of 86%, an activity at 1 µM (MSK2(h)) of 101% and an activity at 1 µM (AMPKα1(h)) of 107%. For the same compound, the activity at 1 µM (Met(h)) was 97%, the activity at 1 µM (Aurora-A(h)) was 133% and the activity at 1 µM (PKCζ(h)) was 91%. The activity at 1 µM (FGFR2(N549H)(h)) was -1%, the activity at 1 µM (NLK(h)) was 86% and the activity at 1 µM (PAK3(h)) was 97%. For the same compound, the activity at 1 µM (DAPK1(h)) was 100%, the activity at 1 µM (KDR(h)) was 9% and the activity at 1 µM (Mer(h)) was 108%. For the same compound, the activity at 1 µM (ICK(h)) was 119%, the activity at 1 µM (CK2α1(h)) was 95% and the activity at 1 µM (BMPR2(h)) was 116%. It also gave an activity at 1 µM (Rsk2(h)) of 149%, an activity at 1 µM (HRI(h)) of 100% and an activity at 1 µM (HPK1(h)) of 95%. The activity at 1 µM (GCK(h)) was 98%, the activity at 1 µM (Ros(h)) was 101% and the activity at 1 µM (MARK1(h)) was 93%. The activity at 1 µM (Bmx(h)) was 64% and the activity at 1 µM (TSSK1(h)) was 109%.
